Assay results taken from patent publication US20100298141A1, “SUBSTITUTED PYRIDINE N-OXIDE HERBICIDES” (E. I. DU PONT DE NEMOURS AND COMPANY, priority 2007, published 2010).

Legend:
Test in all cases: Test F preemergence test
Details in all cases: scale 0 to 100
prickly sida = type: in vivo, Sida spinosa
Method in brief: (§1)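 Visual ratings relative to controls, taken after 14 to 21 days in a greenhouse. Test chemicals, formulated in a surfactant-containing non-phytotoxic solvent mixture, were applied preemergence to sown seeds or postemergence to sugarcane plants.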

common purslane = type: in vivo, Portulaca oleracea
Method in brief: as §1

Virginia dayflower = type: in vivo, Commelina virginica
Method in brief: as §1

common groundsel = type: in vivo, Senecio vulgaris
Method in brief: as §1

itchgrass = type: in vivo, Rottboellia cochinchinensis
Method in brief: as §1

annual bluegrass = type: in vivo, Poa annua
Method in brief: as §1

field bindweed = type: in vivo, Convolvulus arvensis
Method in brief: as §1

pitted morningglory = type: in vivo, Ipomoea lacunosa
Description: (§2) Seeds of plant species selected from bermudagrass (Cynodon dactylon), Surinam grass (Brachiaria decumbens), large crabgrass (Digitaria sanguinalis), green foxtail (Setaria viridis), goosegrass (Eleusine indica), johnsongrass (Sorghum halepense), kochia (Kochia scoparia), pitted morningglory (Ipomoea lacunosa), purple nutsedge (Cyperus rotundus), common ragweed (Ambrosia elation), mustard (Brassica nigra), guineagrass (Panicum maximum), […] (Paspalum dilatatum), barnyardgrass (Echinochloa crus-galli), southern sandbur (Cenchrus echinatus), common sowthistle (Sonchus oleraceous), prickly […] spinosa), Italian ryegrass (Lolium multiflorum), common purslane (Portulaca oleracea), broadleaf signalgrass (Brachiaria platyphylla), common groundsel (Senecio vulgaris), common chickweed (Stellaria media), Virginia dayflower (Commelina virginica), annual bluegrass (Poa annua), naked crabgrass (Digitaria nuda), […] cochinchinensis), quackgrass (Elytrigia repens), Canada horseweed (Conyza canadensis), field bindweed (Convolvulus arvensis), […] (Bidens bipinnata), common mallow (Malva sylvestris), Russian thistle (Salsola kali), and sugarcane (Saccharum officinarum) were planted and treated preemergence with test chemicals formulated in a non-phytotoxic solvent mixture which included a surfactant. At a different time, sugarcane was treated with postemergence applications of some of the test chemicals formulated in the same manner. Plants were approximately 3- to 4-leaf stage for the postemergence treatments. Treated plants and controls were maintained in a greenhouse for 14 to 21 days, after which time all species were compared to controls and visually evaluated. […] A dash (-) response means no test result.

green foxtail = type: in vivo, Setaria viridis
Method in brief: as §1

johnsongrass = type: in vivo, Sorghum halepense
Method in brief: as §1

guineagrass = type: in vivo, Panicum maximum
Method in brief: as §1

spanishneedles = type: in vivo, Bidens bipinnata
Description: as §2

naked crabgrass = type: in vivo, Digitaria nuda
Method in brief: as §1

common mallow = type: in vivo, Malva sylvestris
Description: as §2

dallisgrass = type: in vivo, Paspalum dilatatum
Method in brief: as §1

Cn1nc(C(F)(F)F)c(C[S+]([O-])c2cccc[n+]2[O-])c1OCC(F)(F)F (racemic) [Compound 28]
Prickly Sida plant response rating (prickly sida; 62 g ai/ha, Preemergence): 100
Prickly Sida plant response rating (prickly sida; 125 g ai/ha, preemergence): 100
Plant response rating, Prickly Sida (prickly sida; Preemergence, 16 g ai/ha): 15
Plant response rating, Prickly Sida (prickly sida; Preemergence, 31 g ai/ha): 90
Purslane plant response rating (common purslane; 62 g ai/ha, Preemergence): 100
Purslane plant response rating (common purslane; 125 g ai/ha, preemergence): 100
Plant response rating, Purslane (common purslane; Preemergence, 16 g ai/ha): 0
Plant response rating, Purslane (common purslane; Preemergence, 31 g ai/ha): 60
Dayflower plant response rating (Virginia dayflower; 62 g ai/ha, Preemergence): 100
Dayflower plant response rating (Virginia dayflower; 125 g ai/ha, preemergence): 100
Plant response rating, Dayflower (Virginia dayflower; Preemergence, 16 g ai/ha): 20
Plant response rating, Dayflower (Virginia dayflower; Preemergence, 31 g ai/ha): 100
Groundsel plant response rating (common groundsel; 62 g ai/ha, Preemergence): 100
Groundsel plant response rating (common groundsel; 125 g ai/ha, preemergence): 100
Plant response rating, Groundsel (common groundsel; Preemergence, 16 g ai/ha): 90
Plant response rating, Groundsel (common groundsel; Preemergence, 31 g ai/ha): 100
Itchgrass plant response rating (itchgrass; 62 g ai/ha, Preemergence): 95
Itchgrass plant response rating (itchgrass; 125 g ai/ha, preemergence): 100
Plant response rating, Itchgrass (itchgrass; Preemergence, 16 g ai/ha): 20
Plant response rating, Itchgrass (itchgrass; Preemergence, 31 g ai/ha): 35
Bluegrass plant response rating (annual bluegrass; 62 g ai/ha, Preemergence): 65
Bluegrass plant response rating (annual bluegrass; 125 g ai/ha, preemergence): 100
Plant response rating, Bluegrass (annual bluegrass; Preemergence, 16 g ai/ha): 0
Plant response rating, Bluegrass (annual bluegrass; Preemergence, 31 g ai/ha): 40
Field Bindweed plant response rating (field bindweed; 62 g ai/ha, Preemergence): 80
Field Bindweed plant response rating (field bindweed; 125 g ai/ha, preemergence): 90
Plant response rating, Field Bindweed (field bindweed; Preemergence, 16 g ai/ha): 60
Plant response rating, Field Bindweed (field bindweed; Preemergence, 31 g ai/ha): 70
Morningglory plant response rating (pitted morningglory; 62 g ai/ha, Preemergence): 100
Morningglory plant response rating (pitted morningglory; 125 g ai/ha, preemergence): 100
Plant response rating, Morningglory (pitted morningglory; Preemergence, 16 g ai/ha): 30
Plant response rating, Morningglory (pitted morningglory; Preemergence, 31 g ai/ha): 80
Foxtail, Green plant response rating (green foxtail; 62 g ai/ha, Preemergence): 100
Foxtail, Green plant response rating (green foxtail; 125 g ai/ha, preemergence): 100
Plant response rating, Foxtail, Green (green foxtail; Preemergence, 16 g ai/ha): 30
Plant response rating, Foxtail, Green (green foxtail; Preemergence, 31 g ai/ha): 80
Johnsongrass plant response rating (johnsongrass; 62 g ai/ha, Preemergence): 100
Johnsongrass plant response rating (johnsongrass; 125 g ai/ha, preemergence): 100
Plant response rating, Johnsongrass (johnsongrass; Preemergence, 16 g ai/ha): 40
Plant response rating, Johnsongrass (johnsongrass; Preemergence, 31 g ai/ha): 75
Guineagrass plant response rating (guineagrass; 62 g ai/ha, Preemergence): 100
Guineagrass plant response rating (guineagrass; 125 g ai/ha, preemergence): 100
Plant response rating, Guineagrass (guineagrass; Preemergence, 16 g ai/ha): 75
Plant response rating, Guineagrass (guineagrass; Preemergence, 31 g ai/ha): 100
Spanishneedles plant response rating (spanishneedles; 62 g ai/ha, Preemergence): 100
Spanishneedles plant response rating (spanishneedles; 125 g ai/ha, preemergence): 100
Plant response rating, Spanishneedles (spanishneedles; Preemergence, 31 g ai/ha): 80
Crabgrass, Naked plant response rating (naked crabgrass; 62 g ai/ha, Preemergence): 90
Crabgrass, Naked plant response rating (naked crabgrass; 125 g ai/ha, preemergence): 100
Plant response rating, Crabgrass, Naked (naked crabgrass; Preemergence, 16 g ai/ha): 65
Plant response rating, Crabgrass, Naked (naked crabgrass; Preemergence, 31 g ai/ha): 90
Mallow plant response rating (common mallow; 62 g ai/ha, Preemergence): 100
Mallow plant response rating (common mallow; 125 g ai/ha, preemergence): 100
Plant response rating, Mallow (common mallow; Preemergence, 16 g ai/ha): 0
Plant response rating, Mallow (common mallow; Preemergence, 31 g ai/ha): 100
Dallisgrass plant response rating (dallisgrass; 62 g ai/ha, Preemergence): 100
Dallisgrass plant response rating (dallisgrass; 125 g ai/ha, preemergence): 100
Plant response rating, Dallisgrass (dallisgrass; Preemergence, 16 g ai/ha): 0
Plant response rating, Dallisgrass (dallisgrass; Preemergence, 31 g ai/ha): 40

Cc1cc[n+]([O-])c(S(=O)(=O)Cc2c(C(F)(F)F)nn(C)c2OCC(F)(F)F)c1 [Compound 31]
Plant response rating, Prickly Sida (prickly sida; 16 g ai/ha, preemergence): 40
Prickly Sida plant response rating (prickly sida; 62 g ai/ha, Preemergence): 80
Prickly Sida plant response rating (prickly sida; 125 g ai/ha, preemergence): 100
Plant response rating, Prickly Sida (prickly sida; Preemergence, 31 g ai/ha): 75
Plant response rating, Purslane (common purslane; 16 g ai/ha, preemergence): 25
Purslane plant response rating (common purslane; 62 g ai/ha, Preemergence): 40
Purslane plant response rating (common purslane; 125 g ai/ha, preemergence): 65
Plant response rating, Dayflower (Virginia dayflower; 16 g ai/ha, preemergence): 30
Dayflower plant response rating (Virginia dayflower; 62 g ai/ha, Preemergence): 100
Dayflower plant response rating (Virginia dayflower; 125 g ai/ha, preemergence): 100
Plant response rating, Dayflower (Virginia dayflower; Preemergence, 31 g ai/ha): 65
Groundsel plant response rating (common groundsel; 125 g ai/ha, preemergence): 100
Plant response rating, Itchgrass (itchgrass; 16 g ai/ha, preemergence): 10
Itchgrass plant response rating (itchgrass; 62 g ai/ha, Preemergence): 60
Itchgrass plant response rating (itchgrass; 125 g ai/ha, preemergence): 80
Plant response rating, Itchgrass (itchgrass; Preemergence, 31 g ai/ha): 25
Plant response rating, Bluegrass (annual bluegrass; 16 g ai/ha, preemergence): 35
Bluegrass plant response rating (annual bluegrass; 62 g ai/ha, Preemergence): 75
Bluegrass plant response rating (annual bluegrass; 125 g ai/ha, preemergence): 90
Plant response rating, Bluegrass (annual bluegrass; Preemergence, 31 g ai/ha): 65
Plant response rating, Field Bindweed (field bindweed; 16 g ai/ha, preemergence): 0
Field Bindweed plant response rating (field bindweed; 62 g ai/ha, Preemergence): 40
Field Bindweed plant response rating (field bindweed; 125 g ai/ha, preemergence): 70
Plant response rating, Field Bindweed (field bindweed; Preemergence, 31 g ai/ha): 0
Plant response rating, Morningglory (pitted morningglory; 16 g ai/ha, preemergence): 0
Morningglory plant response rating (pitted morningglory; 62 g ai/ha, Preemergence): 60
Morningglory plant response rating (pitted morningglory; 125 g ai/ha, preemergence): 98
Plant response rating, Morningglory (pitted morningglory; Preemergence, 31 g ai/ha): 20
Plant response rating, Foxtail, Green (green foxtail; 16 g ai/ha, preemergence): 60
Foxtail, Green plant response rating (green foxtail; 62 g ai/ha, Preemergence): 100
Foxtail, Green plant response rating (green foxtail; 125 g ai/ha, preemergence): 100
Plant response rating, Foxtail, Green (green foxtail; Preemergence, 31 g ai/ha): 95
Plant response rating, Johnsongrass (johnsongrass; 16 g ai/ha, preemergence): 40
Johnsongrass plant response rating (johnsongrass; 62 g ai/ha, Preemergence): 100
Johnsongrass plant response rating (johnsongrass; 125 g ai/ha, preemergence): 100
Plant response rating, Johnsongrass (johnsongrass; Preemergence, 31 g ai/ha): 50
Plant response rating, Guineagrass (guineagrass; 16 g ai/ha, preemergence): 80
Guineagrass plant response rating (guineagrass; 62 g ai/ha, Preemergence): 100
Guineagrass plant response rating (guineagrass; 125 g ai/ha, preemergence): 100
Plant response rating, Guineagrass (guineagrass; Preemergence, 31 g ai/ha): 100
Plant response rating, Spanishneedles (spanishneedles; 16 g ai/ha, preemergence): 0
Plant response rating, Spanishneedles (spanishneedles; Preemergence, 62 g ai/ha): 100
Plant response rating, Spanishneedles (spanishneedles; Preemergence, 31 g ai/ha): 100
Plant response rating, Crabgrass, Naked (naked crabgrass; 16 g ai/ha, preemergence): 75
Crabgrass, Naked plant response rating (naked crabgrass; 62 g ai/ha, Preemergence): 100
Crabgrass, Naked plant response rating (naked crabgrass; 125 g ai/ha, preemergence): 100
Plant response rating, Crabgrass, Naked (naked crabgrass; Preemergence, 31 g ai/ha): 85
Plant response rating, Mallow (common mallow; 16 g ai/ha, preemergence): 0
Mallow plant response rating (common mallow; 62 g ai/ha, Preemergence): 100
Mallow plant response rating (common mallow; 125 g ai/ha, preemergence): 100
Plant response rating, Mallow (common mallow; Preemergence, 31 g ai/ha): 100
Plant response rating, Dallisgrass (dallisgrass; 16 g ai/ha, preemergence): 35
Dallisgrass plant response rating (dallisgrass; 62 g ai/ha, Preemergence): 95
Dallisgrass plant response rating (dallisgrass; 125 g ai/ha, preemergence): 100
Plant response rating, Dallisgrass (dallisgrass; Preemergence, 31 g ai/ha): 60
